Measurements as given in ChEMBL document CHEMBL1156496 (J Biol Chem, 2007).

Legend:
[1] = Inhibition of complement component C3c
[2] = Binding affinity to complement component C3c in human plasma; type: cell-free

IC50 [1]: 12 µM
Kd [2]: 0.39 µM
Compound: CC[C@H](C)[C@H](N)C(=O)N[C@H]1CSSC[C@@H](C(=O)N[C@H](C(N)=O)[C@@H](C)O)NC(=O)[C@H](CCCNC(=N)N)NC(=O)[C@H](Cc2cnc[nH]2)NC(=O)[C@H](Cc2cnc[nH]2)NC(=O)CNC(=O)[C@H](Cc2c[nH]c3ccccc23)NC(=O)[C@H](CC(=O)O)NC(=O)[C@H](CCC(N)=O)NC(=O)[C@H](C(C)C)NC(=O)[C@H](C(C)C)NC1=O [COMPSTATIN]
